Measured values: ChEMBL document CHEMBL1126299, “Synthesis and structure-activity relationships of cephalosporins with C-3' catechol-containing residues” (J Med Chem, 1992)
≈ marks a conversion by molar mass, not a printed value.

Legend:
Pseudomonas aeruginosa [1] = assay: microbe, parasite or virus in culture
Description: Minimum inhibitory concentration in Pseudomonas aeruginosa,799WT parent organism

Citrobacter freundii [2] = assay: microbe, parasite or virus in culture
Description: Minimum inhibitory concentration in Citrobacter freundii, I+382010 inducible type 1 lactamase producer

Homo sapiens = organism: Homo sapiens; assay: Compound is evaluated for serum protein binding in human blood (protein binding in marmoset blood); format: functional
Enterobacter cloacae [3] = assay: microbe, parasite or virus in culture
Description: Minimum inhibitory concentration in Enterobacter cloacae, P99+ constitutive depressed type 1 lactamase producer

Escherichia coli [4] = assay: microbe, parasite or virus in culture
Description: In vitro minimum inhibitory concentration against Escherichia coli (DC0 parent organism).

Escherichia coli [5] = assay: microbe, parasite or virus in culture; remark: listed apart in the source
Description: In vitro minimum inhibitory concentration against Escherichia coli (DC2 permeability mutant).

Citrobacter freundii [6] = assay: The compound was tested for minimum inhibitory concentration in Citrobacter freundii, DR 382031 constitutive depressed type 1; format: functional
Pseudomonas aeruginosa [7] = assay: microbe, parasite or virus in culture; remark: listed apart in the source
Description: Minimum inhibitory concentration in Pseudomonas aeruginosa, 18SH constitutive depressed type 1 lactamase producer

Enterobacter cloacae [8] = assay: microbe, parasite or virus in culture; remark: listed apart in the source
Description: Minimum inhibitory concentration in Enterobacter cloacae, I+401029 inducible type 1 lactamase producer

Pseudomonas aeruginosa [9] = assay: microbe, parasite or virus in culture; remark: listed apart in the source
Description: Minimum inhibitory concentration in Pseudomonas aeruginosa,799/61 permeability mutant

[10] = The compound was tested for % urinary recovery in marmosets at the dose of 3 mg/kg; format: ADME, organism-based; set-up: dose 3 mg/kg; details: callithrix, urine, read-out: Recovery
Pseudomonas aeruginosa [11] = assay: microbe, parasite or virus in culture; remark: listed apart in the source
Description: Minimum inhibitory concentration in Pseudomonas aeruginosa, 18S inducible type 1 lactamase producer

Enterobacter cloacae [12] = assay: microbe, parasite or virus in culture; remark: listed apart in the source
Description: Minimum inhibitory concentration in Enterobacter cloacae, DR 401108 constitutive depressed type 1 lactamase producer

Providencia stuartii [13] = assay: microbe, parasite or virus in culture
Description: Minimum inhibitory concentration in Pseudomonas stuartii, DR 442049 constitutive depressed type 1 lactamase producer

Enterobacter cloacae [14] = assay: microbe, parasite or virus in culture; remark: listed apart in the source
Description: Minimum inhibitory concentration in Enterobacter cloacae, P99- inducible type 1 lactamase producer

Providencia stuartii [15] = assay: microbe, parasite or virus in culture; remark: listed apart in the source
Description: Minimum inhibitory concentration in Pseudomonas stuartii, I+442019 inducible type 1 lactamase producer

Pseudomonas aeruginosa [16] = assay: microbe, parasite or virus in culture; remark: listed apart in the source
Description: In vitro minimum inhibitory concentration against Pseudomonas aeruginosa (PU21).

Staphylococcus aureus [17] = assay: The compound was tested for minimum inhibitory concentration in Staphylococcus aureus,147N penicillin sensitive Staphylococcus aureus; format: functional
Staphylococcus aureus [18] = assay: The compound was tested for minimum inhibitory concentration in Staphylococcus aureus Oxford penicillin sensitive Staphylococcus aureus; format: functional
[19] = The compound was evaluated for area under the curve in marmosets; format: ADME; details: callithrix, in vivo
Staphylococcus aureus [20] = assay: microbe, parasite or virus in culture
[21] = biological target: Beta-lactamase TEM (Escherichia coli) (UniProt P62593); assay: The dissociation constant of compound was tested for beta-Lactamase stability
Beta-lactamase TEM (Escherichia coli), sequence (P62593 whole entry): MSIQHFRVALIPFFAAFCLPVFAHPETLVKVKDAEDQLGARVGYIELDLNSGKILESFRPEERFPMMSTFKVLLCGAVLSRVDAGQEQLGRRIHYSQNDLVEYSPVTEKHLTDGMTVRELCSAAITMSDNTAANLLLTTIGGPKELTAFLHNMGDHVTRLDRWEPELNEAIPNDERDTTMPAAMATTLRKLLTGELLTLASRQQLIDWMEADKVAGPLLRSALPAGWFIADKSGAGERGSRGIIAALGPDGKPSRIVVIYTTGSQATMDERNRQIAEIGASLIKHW

Staphylococcus aureus [22] = assay: microbe, parasite or virus in culture; remark: listed apart in the source
Citrobacter freundii [23] = assay: microbe, parasite or virus in culture; remark: listed apart in the source
Description: Minimum inhibitory concentration in Citrobacter freundii, DR 382031 constitutive depressed type 1

[24] = The half life period in marmosets; format: ADME; details: callithrix, in vivo
Pseudomonas aeruginosa [25] = assay: The compound was tested for minimum inhibitory concentration in Pseudomonas aeruginosa,799/61 permeability mutant; format: functional
Pseudomonas aeruginosa [26] = assay: The compound was tested for minimum inhibitory concentration in Pseudomonas aeruginosa,799WT parent organism; format: functional
Citrobacter freundii [27] = assay: The compound was tested for minimum inhibitory concentration in Citrobacter freundii, Citrobacter freundii, DR 382031; format: functional
Providencia stuartii [28] = assay: The compound was tested for minimum inhibitory concentration in Pseudomonas stuartii,I+442019 inducible type 1 lactamase producer; format: functional, pseudomonas stuartiii

Compound `CC(C)(O/N=C(\C(=O)N[C@@H]1C(=O)N2C(C(=O)O)=C(CCNC(=O)c3cc(O)c(O)c(Br)c3)CSC12)c1csc(N)n1)C(=O)O` (stereo partly drawn) has an MIC (Pseudomonas aeruginosa [1]) of 0.008 mg/L (≈ 0.0112 µM), an MIC (Citrobacter freundii [2]) of 0.008 mg/L (≈ 0.0112 µM) and an Activity (Homo sapiens) of 99%. It also gave an MIC (Enterobacter cloacae [3]) of 2 mg/L (≈ 2.8 µM), an MIC (Escherichia coli [4]) of 0.008 mg/L (≈ 0.0112 µM) and an MIC (Escherichia coli [5]) of 0.008 mg/L (≈ 0.0112 µM). The MIC (Citrobacter freundii [6]) was 1 mg/L (≈ 1.4 µM), the MIC (Pseudomonas aeruginosa [7]) was 0.015 mg/L (≈ 0.021 µM) and the MIC (Enterobacter cloacae [8]) was 0.015 mg/L (≈ 0.021 µM). The MIC (Pseudomonas aeruginosa [9]) was 0.008 mg/L (≈ 0.0112 µM), the dose excreted [10] was 17.5% and the MIC (Pseudomonas aeruginosa [11]) was 0.008 mg/L (≈ 0.0112 µM). It also gave an MIC (Enterobacter cloacae [12]) of 8 mg/L (≈ 11.2 µM), an MIC (Providencia stuartii [13]) of 4 mg/L (≈ 5.61 µM) and an MIC (Enterobacter cloacae [14]) of 0.03 mg/L (≈ 0.042 µM). The MIC (Providencia stuartii [15]) was 0.25 mg/L (≈ 0.35 µM), the MIC (Pseudomonas aeruginosa [16]) was 0.008 mg/L (≈ 0.0112 µM) and the MIC (Staphylococcus aureus [17]) was 16 mg/L (≈ 22.4 µM). The MIC (Staphylococcus aureus [18]) was 16 mg/L (≈ 22.4 µM).

In the case of `CC(C)(O/N=C(\C(=O)N[C@@H]1C(=O)N2C(C(=O)O)=C(CNC(=O)c3ccc(O)c(O)c3)CSC12)c1csc(N)n1)C(=O)O` (stereo partly drawn), the MIC (Pseudomonas aeruginosa [1]) is reported as 0.008 mg/L (≈ 0.0129 µM), the MIC (Citrobacter freundii [2]) is reported as 0.03 mg/L (≈ 0.0483 µM) and the AUC [19] is reported as 27.2 mg/h/L. For the same compound, the MIC (Staphylococcus aureus [20]) was 8 mg/L (≈ 12.9 µM), the Activity (Homo sapiens) was 96.3% and the MIC (Enterobacter cloacae [3]) was 16 mg/L (≈ 25.8 µM). It also gave an MIC (Escherichia coli [4]) of 0.008 mg/L (≈ 0.0129 µM), an MIC (Escherichia coli [5]) of 0.008 mg/L (≈ 0.0129 µM) and a pKa [21] of 8.5. It also gave an MIC (Staphylococcus aureus [22]) of 16 mg/L (≈ 25.8 µM), an MIC (Pseudomonas aeruginosa [7]) of 0.06 mg/L (≈ 0.0967 µM) and an MIC (Enterobacter cloacae [8]) of 0.125 mg/L (≈ 0.201 µM). It also gave an MIC (Pseudomonas aeruginosa [9]) of 0.008 mg/L (≈ 0.0129 µM), a dose excreted [10] of 44.8% and an MIC (Pseudomonas aeruginosa [11]) of 0.008 mg/L (≈ 0.0129 µM). It also gave an MIC (Enterobacter cloacae [12]) greater than 128 mg/L, an MIC (Providencia stuartii [13]) of 1 mg/L (≈ 1.61 µM) and an MIC (Enterobacter cloacae [14]) of 0.125 mg/L (≈ 0.201 µM). For the same compound, the MIC (Citrobacter freundii [23]) was 16 mg/L (≈ 25.8 µM), the MIC (Providencia stuartii [15]) was 0.25 mg/L (≈ 0.403 µM) and the MIC (Pseudomonas aeruginosa [16]) was 0.015 mg/L (≈ 0.0242 µM). For the same compound, the half-life [24] was 1.25 h.

Work on `CCn1cc(C(=O)NCC2=C(C(=O)O)N3C(=O)[C@@H](NC(=O)/C(=N\OC(C)(C)C(=O)O)c4csc(N)n4)C3SC2)c(=O)c2c(C#N)c(O)c(O)cc21` (stereo partly drawn) yielded an MIC (Pseudomonas aeruginosa [25]) of 0.008 mg/L (≈ 0.0108 µM), an MIC (Citrobacter freundii [2]) of 0.008 mg/L (≈ 0.0108 µM) and an MIC (Enterobacter cloacae [3]) of 0.015 mg/L (≈ 0.0203 µM). The pKa (physchem) was less than 5.5, the MIC (Pseudomonas aeruginosa [26]) was 0.008 mg/L (≈ 0.0108 µM) and the MIC (Pseudomonas aeruginosa [7]) was 0.008 mg/L (≈ 0.0108 µM). It also gave an MIC (Citrobacter freundii [27]) of 0.03 mg/L (≈ 0.0405 µM), an MIC (Enterobacter cloacae [8]) of 0.015 mg/L (≈ 0.0203 µM) and an MIC (Pseudomonas aeruginosa [11]) of 0.008 mg/L (≈ 0.0108 µM). It also gave an MIC (Enterobacter cloacae [12]) of 0.5 mg/L (≈ 0.675 µM), an MIC (Enterobacter cloacae [14]) of 0.015 mg/L (≈ 0.0203 µM) and an MIC (Providencia stuartii [28]) of 0.008 mg/L (≈ 0.0108 µM).
